SMILES strings stand for the structures. Converted amounts (≈) assume the structure as drawn. Where two headings read alike, the source gives them in different places.

Here are results for two compounds from article PMC9216299, “Quercetin and luteolin are single-digit micromolar inhibitors of the SARS-CoV-2 RNA-dependent RNA polymerase” (Scientific Reports, 2022).

Data set [1] has as its target SARS-CoV-2 RdRp (Severe acute respiratory syndrome coronavirus 2, UniProt P0DTD1). Kind of data set: biochemical. The conditions noted are these: for inhibition at 25 µM / inhibition at 100 µM: SARS-CoV-2 RdRp; for inhibition at 25 µM: compound at 25 µM, read-out: % inhib 25 µM; for inhibition at 100 µM: compound at 100 µM, read-out: % inhib 100 µM.
The conditions of data set [2]: 24 h, pH 7.4.
Data set [3] in a line: in vitro. As to conditions: mouse, microsomes, pH 7.4.
Data set [4] deals with 3CL^pro. As to conditions: viral protease 3CLpro, cited from earlier work; for IC50: in vitro.
Data set [5] in a line: In vitro plasma stability. The conditions noted are these: for stability in blood plasma (in words): mouse plasma, measured time span 120 min; for half-life at 2 µM: mouse, plasma.
Data set [6] has as its system M^pro. The conditions noted are these: cited from earlier work.
Data set [7] has as its system NTPase/helicase. The conditions noted are these: cited from earlier work.
The nature of data set [8]: Aqueous kinetic solubility in PBS pH 7.4. The conditions noted are these: PBS neutral buffer pH 7.4, 25 °C, 24 h, target 250 µM, 2.5% DMSO.

Consider `O=c1cc(-c2ccc(O)c(O)c2)oc2cc(O)cc(O)c12` [Luteolin, luteolin], for which, in data set [1], the IC50 stood at 4.6 ± 0.3 µM, the inhibition at 25 µM came out at 89% and the inhibition at 100 µM worked out at 100%. Besides, the “kinetic solubility (Sk)” value in data set [2] is 21 ± 4 µM (≈ 6.01 µg/mL). The compound also displayed a half-life at 4.6 µM in data set [3] of over 60 min. For the same compound, the IC50 in data set [4] is 20 µM. Also, in data set [5], the “stability in blood plasma (in words)” value is listed as “stable in the measured time span” and the half-life at 2 µM was over 120 min.
Consider `O=c1c(O)c(-c2ccc(O)c(O)c2)oc2cc(O)cc(O)c12` [Quercetin, quercetin], for which, in data set [1], the inhibition at 25 µM is 81% and the inhibition at 100 µM was 100%. For the same compound, in data set [6], the “activity against SARS-CoV Mpro” value is on record as “active”. The “activity against SARS-CoV NTPase/helicase” value in data set [7] is “active”. Further, the half-life at 4.6 µM in data set [3] is over 60 min. In addition, in data set [4], the IC50 is 24 µM and the Ki was about 7 µM. In data set [5], the “stability in blood plasma (in words)” value is on record as “poorly stable” and the half-life at 2 µM came to 7 ± 2 min. In data set [8], the “kinetic solubility (Sk)” value came to 16 ± 5 µM (≈ 4.84 µg/mL).
